Measured values taken from patent US20250099407A1, “2-AMINO BENZOPHENONE DERIVATIVES FOR TARGETED FERROPTOSIS INDUCTION IN CANCER THERAPY” (INDIAN INSTITUTE OF TECHNOLOGY KANPUR, priority 2023, published 2025).

Assays:
Format in all cases: cell-based
MCF7 = assay: Cell viability, CellTiter-Glo assay, MCF7; conditions: Homo sapiens
Method: (§1) The viability of screened cancer cells was recorded using a luminescence-based CellTiter-Glo® assay for the ATP quantification. The screening concentration of the molecule ranged from 100/10 μM to 45/4.5 nM with an 8-point-3-fold dilution series in DMEM media (>0.1% DMSO as control). Each experiment was conducted in more than two biological replicates with three technical replicates. The error bar is a representation of standard deviation among the technical replicates.
as §1, with “IITK3002” for “the molecule”, “10” for “100/10”, “4.5” for “45/4.5”
(§2) a. […] In parallel, we have also synthesized the bromoacetamide (IITK3002) version of the lead molecules which is slightly more reactive with thiol nucleophiles when compared to chlorooacetamide warheads as depicted in FIG. 13. […] In addition, we also evaluated the molecules' antiproliferative potency against a panel of twelve different cancer phenotypes. […]

HCT116 = assay: Cell viability, CellTiter-Glo assay, HCT116; conditions: Homo sapiens, HCT-116
Method: as §1
as §1, with “IITK3002” for “the molecule”, “10” for “100/10”, “4.5” for “45/4.5”
as §2

MDA-MB-231 = assay: Cell viability, CellTiter-Glo assay, MDA-MB-231; conditions: Homo sapiens; MDA-MB-231, cell viability
Method: as §1
as §1, with “IITK3002” for “the molecule”, “10” for “100/10”, “4.5” for “45/4.5”
as §2

Jurkat J6 = assay: Cell viability, CellTiter-Glo assay, Jurkat J6; conditions: Homo sapiens
Method: as §1
as §1, with “IITK3002” for “the molecule”, “10” for “100/10”, “4.5” for “45/4.5”
as §2

RPMI 8226 = assay: Cell viability, CellTiter-Glo assay, RPMI 8226; conditions: Homo sapiens; RPMI 8226, cell viability
Method: as §1
as §1, with “IITK3002” for “the molecule”, “10” for “100/10”, “4.5” for “45/4.5”
as §2

A375 = assay: Cell viability, CellTiter-Glo assay, A375; conditions: Homo sapiens, A-375
Method: as §1
as §1, with “IITK3002” for “the molecule”, “10” for “100/10”, “4.5” for “45/4.5”
as §2

U87MG = assay: Cell viability, CellTiter-Glo assay, U87MG; conditions: Homo sapiens, U-87 MG
Method: as §1
as §1, with “IITK3002” for “the molecule”, “10” for “100/10”, “4.5” for “45/4.5”
as §2

4T1 = assay: Cell viability, CellTiter-Glo assay, 4T1; conditions: Mus musculus; 4T1, cell viability
Method: as §1
as §1, with “IITK3002” for “the molecule”, “10” for “100/10”, “4.5” for “45/4.5”
as §2

Huh-7 cells = assay: Intracellular ROS, H2-DCFDA oxidation assay in Huh-7 cells; conditions: Huh-7, 37° C., 30 min; IITK3001 and IITK3002 20 μM, H2O2 100 μM
Method: We used fluorescence imaging-based oxidation of H2-DCFDA by ROS for assessing intracellular oxidative stress. Huh-7 cells were treated at 37° C. for 30 min with IITK3001 and IITK3002 (20 μM), H2O2 (100 μM), ^tertBuOOH (20 μM), NAC (0.5 mM) and 0.1% DMSO as control. Each experiment was conducted in more than two biological replicates with three technical replicates.
b. Effect of Thiols and Ferroptosis Modulators on the Hit Molecules' Antiproliferative Potency: Ferroptosis is directly controlled by the intracellular thiol concentrations in the form of cysteine and glutathione. Several oxidative mechanisms are well-wired in ferroptotic cell death and we set out to investigate the precise molecular mechanism of our lead molecules. Both cysteine and glutathione (GSH) are the enriched thiol-containing small molecule antioxidant system that are essential regulators of redox modulation in cells including ferroptosis. Further, the enzyme glutathione peroxidase 4 (GPX4) is well characterized to specifically quench the lipid peroxide equivalents in cells through the conversion of […] in cells thereby restoring the reduced environment in cells. Therefore, first, we assessed the ability of N-acetylcysteine (NAC) and GSH to suppress our lead molecules antiproliferative activity (FIG. 4a, b). We found a drastic reduction in the molecules' potency with IITK3001 (>1000-fold reduction) and IITK3002 (>500-fold reduction) (FIG. 14a, b). Supporting that, the addition of DL-Buthionine sulfoximine (BSO), an inhibitor of y-glutamylcysteine synthetase (glutathione biosynthesis) combination with our lead molecules potentiated the overall inhibitory capacity (FIG. 14a, b). […] Finally, we assessed the effect of Ferrostain-1 (Fer-1) and Liproxstatin-1 (Lip-1), antioxidants that function by trapping reactive radicals in cells, particularly lipid-peroxide radicals, and preventing the accumulation of lipid peroxides in cells. […] The accumulation of lipid peroxides and overall ROS was also detected using a fluorescence-based H2DCF-DA assay as depicted in FIG. 15. […]

Structure (SMILES) | EC50 (MCF7) | EC50 (HCT116) | EC50 (MDA-MB-231) | EC50 (Jurkat J6) | EC50 (RPMI 8226) | EC50 (A375) | EC50 (U87MG) | EC50 (4T1) | intracellular ROS, H2DCF-DA fluorescence intensity (Huh-7 cells)
CN(C(=O)CCl)c1ccccc1C(=O)c1ccccc1 [IITK3001, N-(2-benzoylphenyl)-2-chloro-N-methylacetamide] | 312 nM | 168 nM | 184 nM | 222 nM | 133 nM | 352 nM | 402 nM | 499 nM | intracellular ROS generation
CN(C(=O)CBr)c1ccccc1C(=O)c1ccccc1 [IITK3002, N-(2-benzoylphenyl)-2-bromo-N-methylacetamide] | 20 nM | 37 nM | 26 nM | 37 nM | 39 nM |  | 80 nM | 66 nM | intracellular ROS generation
